Measured values as given in ChEMBL document CHEMBL4261573, “Synthesis and growth-inhibitory activities of imidazo[5,1-d]-1,2,3,5-tetrazine-8-carboxamides related to the anti-tumour drug temozolomide, with appended silicon, benzyl and heteromethyl groups at the 3-position” (Medchemcomm, 2018).

Assays:
SNB-19 [1] = assay: Growth inhibition of MGMT-transfected human SNB19 cells expressing MGMT after 7 days by MTT assay; format: functional; details: SNB-19, 168 h
U373 MG [2] = assay: Growth inhibition of MGMT-transfected human U373 cells expressing MGMT after 7 days by MTT assay; format: functional, U-373MG ATCC; details: 168 h
SNB-19 [3] = assay: Growth inhibition of vehicle-transfected human SNB19 cells after 7 days by MTT assay; format: functional; details: SNB-19, 168 h
U373 MG [4] = assay: Growth inhibition of vehicle-transfected human U373 cells after 7 days by MTT assay; format: functional, U-373MG ATCC; details: 168 h
[5] = Drug level in deuterated phosphate buffer/D2O at pD 7 treated with 3-(2-Trimethylsilylethoxy)methylimidazotetrazine measured every 15 mins for 12 to 18 hrs by 1H NMR method
[6] = Drug level in deuterated phosphate buffer/D2O at pD 7 treated with 3-Trimethylsilylmethylimidazotetrazine measured every 15 mins for 12 to 18 hrs by 1H NMR method

Drug metabolism [5] | SMILES | GI50 (SNB-19 [1]) [µM] | GI50 (U373 MG [2]) [µM] | GI50 (SNB-19 [3]) [µM] | GI50 (U373 MG [4]) [µM] | Drug metabolism [6]
 | NC(=O)c1nc[nH]c1N/N=N/Cc1ccco1 | > 50 | > 50 | > 50 | > 50 | 
 | NC(=O)c1ncn2c(=O)n(Cc3ccco3)nnc12 | > 50 | > 50 | > 50 | > 50 | 
 | C[Si](C)(C)CCOCn1nnc2c(C(N)=O)ncn2c1=O | 27.5 | 24.2 | 29.9 | 25.3 | 
 | NC(=O)c1nc[nH]c1N/N=N/Cc1ccoc1 | > 50 | > 50 | > 50 | > 50 | 
 | COc1ccccc1Cn1nnc2c(C(N)=O)ncn2c1=O | > 50 | > 50 | > 50 | > 50 | 
 | NC(=O)c1nc[nH]c1N/N=N/CCc1ccccc1 | > 50 | > 50 | > 50 | > 50 | 
 | COc1ccc(Cn2nnc3c(C(N)=O)ncn3c2=O)cc1OC | > 50 | > 50 | > 50 | > 50 | 
 | COc1ccc(Cn2nnc3c(C(N)=O)ncn3c2=O)c(OC)c1 | > 50 | > 50 | > 50 | > 50 | 
Metabolite_Detected | C[Si](C)(C)CCO |  |  |  |  | 
 | NC(=O)c1ncn2c(=O)n(CCc3ccccc3)nnc12 | > 50 | > 50 | > 50 | > 50 | 
 | NC(=O)c1nc[nH]c1N/N=N/Cc1ccccc1 | > 50 | > 50 | > 50 | > 50 | 
 | COc1cccc(Cn2nnc3c(C(N)=O)ncn3c2=O)c1 | > 50 | > 50 | > 50 | > 50 | 
 | COP(=O)(O)O [PHOSPHORIC ACID MONOMETHYL ESTER] |  |  |  |  | Metabolite_Detected
 | NC(=O)c1ncn2c(=O)n(Cc3ccsc3)nnc12 | > 50 | > 50 | > 50 | > 50 | 
Metabolite_Detected | NC(=O)c1[nH]cnc1N |  |  |  |  | Metabolite_Detected
 | COc1ccc(Cn2nnc3c(C(N)=O)ncn3c2=O)cc1 | > 50 | > 50 | > 50 | > 50 | 
 | Cc1cc(Cn2nnc3c(C(N)=O)ncn3c2=O)on1 | > 50 | > 50 | > 50 | > 50 | 

Drug metabolism [5] | SMILES | GI50 (SNB-19 [1]) [µM] | GI50 (U373 MG [2]) [µM] | GI50 (SNB-19 [3]) [µM] | GI50 (U373 MG [4]) [µM] | Drug metabolism [6]
 | C[C@@H](c1ccccc1)n1nnc2c(C(N)=O)ncn2c1=O | 45.3 | > 50 | 34.7 | > 50 | 
 | CO [METHYL ALCOHOL] |  |  |  |  | Metabolite_Detected
 | CC[C@@H](c1ccccc1)n1nnc2c(C(N)=O)ncn2c1=O | > 50 | > 50 | > 50 | > 50 | 
 | Cn1nnc2c(C(N)=O)ncn2c1=O [TEMOZOLOMIDE] | 470 | 369 | 35.7 | 68 | 
 | NC(=O)c1ncn2c(=O)n(C(c3ccccc3)c3ccccc3)nnc12 | > 50 | > 50 | > 50 | > 50 | 
 | COc1ccc([C@@H](C)n2nnc3c(C(N)=O)ncn3c2=O)cc1 | > 50 | > 50 | > 50 | > 50 | 
 | NC(=O)c1nc[nH]c1N/N=N/Cc1cccs1 | > 50 | > 50 | > 50 | > 50 | 
 | NC(=O)c1ncn2c(=O)n(Cc3ccccc3)nnc12 | > 50 | > 50 | > 50 | > 50 | 
 | NC(=O)c1ncn2c(=O)n(Cc3c[nH]nn3)nnc12 | > 50 | > 50 | > 50 | > 50 | 
 | NC(=O)c1ncn2c(=O)n(Cc3cccs3)nnc12 | > 50 | > 50 | > 50 | > 50 | 
 | NC(=O)c1nc[nH]c1N/N=N/Cc1ccsc1 | > 50 | > 50 | > 50 | > 50 | 
 | CC(c1ccc(Br)cc1)n1nnc2c(C(N)=O)ncn2c1=O (racemic) | > 50 | > 50 | > 50 | > 50 | 
 | C[Si](C)(C)Cn1nnc2c(C(N)=O)ncn2c1=O | 302 | 250 | 28.4 | 45.6 | 
 | COc1cc(Cn2nnc3c(C(N)=O)ncn3c2=O)cc(OC)c1OC | > 50 | > 50 | > 50 | > 50 | 
 | Cc1noc(Cn2nnc3c(C(N)=O)ncn3c2=O)n1 | > 50 | > 50 | > 50 | > 50 | 
 | C[C@H](c1ccccc1)n1nnc2c(C(N)=O)ncn2c1=O | 49.7 | > 50 | 32.7 | > 50 | 

SMILES | Drug metabolism [5] | GI50 (SNB-19 [1]) [µM] | GI50 (U373 MG [2]) [µM] | GI50 (SNB-19 [3]) [µM] | GI50 (U373 MG [4]) [µM] | Drug metabolism [6]
C=O.O | Metabolite_Detected |  |  |  |  | 
